# Measurements as given in patent publication US20170184604A1, “DD1ALPHA RECEPTOR AND USES THEREOF IN IMMUNE DISORDERS” (THE GENERAL HOSPITAL CORPORATION, priority 2014, published 2017).
# Key:
# [1] = biological target: T1, PD-1 (Homo sapiens, UniProt Q15116); test: Ig fusion protein-pull down assay; type: binding
# T1 construct: full length human PD-1 and Tim3 cDNA (Sino biological) were cloned into pcDNA3.1(−) tagged with HA at C-terminus; host or cells: HEK293T
# Experimental: FIGS. 6A-6E show physical association of DD1α with PD1 but not with PD-L1. (FIG. 6A) Interaction of DD1α with PD1 or DD1α. […] The bound Ig fusion proteins were detected with anti-Ig-APC. Empty vector (pcDNA3.1)-transfected cells stained with Ig proteins are shown as a negative control (gray filled) and other staining is shown as black open. (FIG. 6B) DD1α binds to both DD1α and PD1 on CD4+ T cells. Purified CD4+ T cells from Wt and DD1α−/− mice were assayed for binding to Ig fused DD1α or PD1 proteins. Cells were incubated with DD1α-Ig (open), PD1-Ig (open), or control Ig proteins (gray filled) and the bound Ig fusion proteins were detected by anti-Ig-APC. […] The bound Ig fusion proteins were detected by anti-Ig-APC. Binding amounts were determined by percentage of APC positive cells compared to control Ig protein-bound cells. (FIG. 6C) Ig-pulldown experiments show DD1α interaction with both DD1α and PD1. […] The bead bound proteins were eluted and determined by western blot analysis using anti-HA antibody (asterisks). […] The bead bound proteins were eluted and detected by western blot analysis with anti-DD1α or anti-PD1 antibody (asterisk). […] The levels of indicated proteins were analyzed by western blot analysis. Total RNAs from control siRNA or p53 siRNA transfected MCF7 cells were assessed for mRNA levels of PD1 or PD-L1 by real-time quantitative PCR. […]
# [2] = system: naïve CD4+CD62L+ T cells; test: iTreg cell development assay; type: cell-based, mouse; settings: for frequency of Foxp3+CD4+ T cells (iTreg): anti-CD3 and anti-CD28
# Experimental: Enriched human CD4+ T cells and CD8+ T cells were stained with CFSE (1 μM) and stimulated with plate-bound anti-CD3 antibody (3 μg/ml) together with 2, 5, or 10 μg/ml of DD1α-Ig proteins or control Ig proteins. The proliferations of CD4+ T or CD8+ T cells were determined by the percentages of CFSE-labeled CD4+ T or CD8+ T cells at the 72-hour culture. The levels of cytokines IFN-γ and TNF-α in culture supernatant were analyzed by ELISA at the 48-hour culture. […] The proliferation and cytokine production of CD4+ T cells were determined as FIG. 5A. […] The proliferations of CD4+ T cells were determined by percentage of CFSE-diluted CD4+ cells on day 3. The levels of cytokines IFN-γ and IL-2 in culture supernatant were analyzed by ELISA on day 2. […] Data are shown as mean±SD and representative of three experiments.
# The cell culture plates were coated with anti-CD3 (145-2C11, eBioscience) together with mDD1α-Ig, mPD-L1-Ig or control Ig proteins. CD4+CD62L+naïve T cells were purified from splenocytes freshly isolated from Wt mice using CD4+CD62L+ T Cell Isolation Kit II (Miltenyi Biotec) and cultured in complete RPMI-1640 media added by anti-CD28 (37.51, eBioscience) and TGF-β (BioLegend) on the anti-CD3 & Ig proteins-coated plates. On day 3, cells were stained with anti-CD4-APC (RM4-5, eBioscience) and anti-mouse Foxp3-PE (FJK-16s, eBioscience) and analyzed for Foxp3 expression on CD4+ T cells by flow cytometry.
# T1 sequence (Q15116 25-288): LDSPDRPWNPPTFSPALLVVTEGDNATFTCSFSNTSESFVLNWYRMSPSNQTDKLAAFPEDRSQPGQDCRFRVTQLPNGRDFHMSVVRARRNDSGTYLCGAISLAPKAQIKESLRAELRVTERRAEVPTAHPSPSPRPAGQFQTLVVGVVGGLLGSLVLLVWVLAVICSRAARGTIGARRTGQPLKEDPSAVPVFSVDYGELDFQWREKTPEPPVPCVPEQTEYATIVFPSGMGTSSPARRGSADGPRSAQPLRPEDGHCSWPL
substance,measurement,setting,value
DD1α-Ig: the extracellular region of DD1α fused with the immunoglobulin G Fc segment,pull down of PD-1,[1]; lysates from transfected 293T cells,pulled down
same,pull down of endogenous PD-1,[1]; lysates of Nutlin-3-treated MCF7 cells,found
same,iTreg cell generation,[2]; alone without TGF-β,did not affect
same,frequency of Foxp3+CD4+ T cells (iTreg),"[2]; 1 ng/ml TGF-β, control Ig 14.2%",31.4%
same,frequency of Foxp3+CD4+ T cells (iTreg),"[2]; 2 ng/ml TGF, control Ig 32.6%",51.7%
same,iTreg cell development,[2]; in the presence of TGF-β,significantly enhanced
